According to ChEMBL document CHEMBL1201862, “PubChem BioAssay data set” (2004):
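48-hour exposure; five concentrations; linearly interpolated endpoints. GI50 marks 50% less growth.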 Calls of active or inactive are those of the source. Rule as the data show it: active = GI50 up to about 1.1 µM and inactive = higher.

Columns and labels:
Assay in all cases: DTP human tumour cell line panel, 48 h
A498 = test system: A498
A549 = test system: A549
COLO 205 = test system: COLO 205
HCC 2998 = test system: HCC 2998
Hs-578T = test system: Hs-578T
KM12 = test system: KM12
LOX IMVI = test system: LOX IMVI
MCF7 = test system: MCF7
MDA-MB-231 = test system: MDA-MB-231
NCI-H226 = test system: NCI-H226
OVCAR-5 = test system: OVCAR-5
OVCAR-8 = test system: OVCAR-8
SK-MEL-28 = test system: SK-MEL-28
SK-MEL-2 = test system: SK-MEL-2
SK-MEL-5 = test system: SK-MEL-5
SNB-19 = test system: SNB-19
SR = test system: SR
TK-10 = test system: TK-10
DU-145 = test system: DU-145
RXF 393 = test system: RXF 393

Measured: GI50

CCCCc1ccc(N2C(=O)c3cc([N+](=O)[O-])cnc3S2(=O)=O)cc1
inactive: A498 > 100 µM | A549 > 100 µM | COLO 205 > 100 µM | HCC 2998 > 100 µM | Hs-578T > 100 µM | KM12 > 100 µM | LOX IMVI 61.7 µM | MCF7 59.8 µM | MDA-MB-231 > 100 µM | NCI-H226 > 100 µM | OVCAR-5 > 100 µM | OVCAR-8 > 100 µM | SK-MEL-28 > 100 µM | SK-MEL-2 23.3 µM | SK-MEL-5 > 100 µM | SNB-19 52.1 µM | SR 43.3 µM | TK-10 > 100 µM

CC(C)C1/C(=N/O)CC(c2ccccc2)N(N=O)C1c1ccccc1 (stereo not given)
inactive: A549 30.1 µM | COLO 205 16.9 µM | DU-145 34 µM | HCC 2998 37.2 µM | Hs-578T 17.5 µM | KM12 31.8 µM | LOX IMVI 28.8 µM | MCF7 32.4 µM | MDA-MB-231 81.3 µM | NCI-H226 37.1 µM | OVCAR-8 57 µM | RXF 393 20.9 µM | SK-MEL-28 50.1 µM | SK-MEL-2 24.5 µM | SK-MEL-5 30.2 µM | SNB-19 > 100 µM | TK-10 62.2 µM

Cc1cc(O)c2c(c1)C(C1OC(CO)C(O)C(O)C1O)c1cc(O)cc(O)c1C2=O (stereo not given)
inactive: A498 > 100 µM | A549 > 100 µM | COLO 205 > 100 µM | DU-145 > 100 µM | HCC 2998 > 100 µM | MCF7 > 100 µM | MDA-MB-231 > 100 µM | NCI-H226 > 100 µM | OVCAR-5 > 100 µM | OVCAR-8 > 100 µM | SK-MEL-28 > 100 µM | SK-MEL-5 > 100 µM | SNB-19 > 100 µM | SR > 100 µM | TK-10 > 100 µM

COC(=O)C1Cc2c([nH]c3ccccc23)-c2[nH]c3ccccc3c2CC(NC(C)=O)C(=O)NCC(=O)N1 (stereo not given)
inactive: A549 > 100 µM | COLO 205 > 100 µM | DU-145 > 100 µM | HCC 2998 > 100 µM | Hs-578T > 100 µM | KM12 > 100 µM | LOX IMVI > 100 µM | MCF7 > 100 µM | MDA-MB-231 > 100 µM | NCI-H226 > 100 µM | OVCAR-5 > 100 µM | OVCAR-8 > 100 µM | RXF 393 > 100 µM | SK-MEL-28 > 100 µM | SK-MEL-2 > 100 µM | SK-MEL-5 > 100 µM | SNB-19 > 100 µM | TK-10 > 100 µM

COC(=O)[C@]12CSC[C@H]1C[C@H](c1cccc3ccccc13)N2
inactive: A498 > 100 µM | A549 93.3 µM | COLO 205 > 100 µM | DU-145 27.8 µM | HCC 2998 > 100 µM | KM12 > 100 µM | LOX IMVI 94.6 µM | MCF7 57.7 µM | MDA-MB-231 > 100 µM | NCI-H226 96.2 µM | OVCAR-5 > 100 µM | OVCAR-8 > 100 µM | SK-MEL-28 > 100 µM | SK-MEL-2 > 100 µM | SK-MEL-5 > 100 µM | SNB-19 > 100 µM | SR 37.8 µM

Cc1cc(=O)oc2cc3c(cc12)Oc1ccccc1O3
inactive: A498 > 100 µM | A549 > 100 µM | COLO 205 > 100 µM | HCC 2998 > 10 µM | KM12 > 100 µM | LOX IMVI 54.6 µM | NCI-H226 > 100 µM | OVCAR-5 > 100 µM | OVCAR-8 42.7 µM | RXF 393 > 100 µM | SK-MEL-28 > 100 µM | SK-MEL-2 > 100 µM | SK-MEL-5 > 100 µM | SNB-19 > 100 µM | SR > 100 µM | TK-10 > 100 µM

CNNC1=NS(=O)(=O)c2cc(C)c(Cl)cc2S1
inactive: A498 > 10 µM | A549 > 10 µM | COLO 205 > 10 µM | DU-145 > 10 µM | HCC 2998 > 10 µM | Hs-578T > 10 µM | KM12 > 10 µM | LOX IMVI > 10 µM | MDA-MB-231 > 10 µM | NCI-H226 > 10 µM | OVCAR-5 > 10 µM | OVCAR-8 > 10 µM | RXF 393 > 10 µM | SK-MEL-28 > 10 µM | SK-MEL-2 > 10 µM | SK-MEL-5 > 10 µM | SNB-19 > 10 µM | TK-10 > 10 µM

CCOc1ccc(NCC2CC/C(=C\c3ccc(Cl)cc3)C2=O)cc1 (stereo not given)
inactive: A498 > 49.5 µM | A549 > 100 µM | COLO 205 > 37.9 µM | HCC 2998 13 µM | KM12 14.2 µM | LOX IMVI 19.4 µM | NCI-H226 > 100 µM | OVCAR-5 > 100 µM | OVCAR-8 > 38.3 µM | RXF 393 > 47.9 µM | SK-MEL-28 50.2 µM | SK-MEL-2 22.4 µM | SK-MEL-5 23 µM | SNB-19 49.1 µM | SR 12.1 µM | TK-10 34.6 µM
